Results published in patent US12616674B2, “Anti-fibrotic NEU3 inhibitor compounds and methods of use” (The Texas A&M University System, priority 2019, dated 2026).

Tested on: bleomycin-induced pulmonary fibrosis, C57BL/6 mice
Experiment: Bleomycin-induced pulmonary fibrosis in mice
Type: in vivo, mouse
Settings: for fibrosis-associated inflammation (BAL cell counts, CD11b, CD11c, CD45, Ly6G, Ly6C): daily i.p. from day 10, 1 mg/kg (2-acetyl pyridine, methyl picolinate) or 0.1 mg/kg (AMPCA), day 21, FIGS. 8A-F; for bleomycin-induced decrease in weights of mice / bleomycin-induced collagen deposition in the lungs (Sirius red staining): daily i.p. from day 10, 1 mg/kg (2AP, MP) or 0.1 mg/kg (AMPCA); for bleomycin-induced decrease in weights of mice: 21 days, FIGS. 11A-D; for bleomycin-induced collagen deposition in the lungs (Sirius red staining): day 21, FIGS. 9-10
Experimental: To determine if selected compounds affect pulmonary fibrosis in mice, 8-10 week old 26-30 g male C57BL/6 mice (Jackson, Bar Harbor, ME) were given an oropharyngeal aspiration of 3 units/kg bleomycin (2246-10, 50, BioVision Incorporated, Milpitas, CA) in 50 μl of 0.9% saline to induce symptoms of pulmonary fibrosis or oropharyngeal saline as a control following Current protocols in mouse biology 2, 167-175, (2012). Starting 10 days after bleomycin had been administered, some of the bleomycin-treated mice were given daily intraperitoneal injections of 100 μl of PBS or 1 mg/kg 2-acetyl pyridine (sc-254121, Santa Cruz Biotechnology, Inc. Dallas, TX) or 1 mg/kg methyl picolinate (sc-228575, Santa Cruz Biotechnology, Inc.) or 0.1 mg/kg of 2-piperidinecarboxylic acid, 4-amino-1-methyl (A00285-13785-026, Sundia, Shanghai, China) in 100 μl PBS. At day 21, mice were sacrificed by CO2 inhalation, and bronchoalveolar lavage (BAL) fluid and cytospins of BAL cells were obtained as previously described in Current protocols in mouse biology 2, 167-175 (2012); Proceedings of the National Academy of Sciences of the United States of America 112, 11929-11934 (2015); Proceedings of the National Academy of Sciences of the United States of America 111, 18291-18296 (2014); Proceedings of the National Academy of Sciences of the United States of America 112, 8385-8390 (2015); and Public Library of Science ONE 9, e93730 (2014) (all hereby incorporated by reference). The total cells from cytospins were quantified as described previously in Current protocols in mouse biology 2, 167-175, (2012); and Public Library of Science ONE 9, e93730 (2014). The lungs were removed and inflated with Surgipath frozen section compound (3801480, Leica, Buffalo Grove, IL) and preserved at −80° C. 6-10 μm cryosections of lungs were placed on glass slides (48311-703, VWR). The experiment was performed in accordance with the recommendations in the Guide for the Care and Use of Laboratory Animals of the National Institutes of Health. The Texas A&M University Animal Use and Care Committee approved the protocol.
Cryosections were stained for collagen with 0.1% Sirius red (09400, Polysciences, Warrington, PA), in saturated picric acid (26853-07, Electron Microscopy Sciences, Hatfield, PA) for 15 minutes at room temperature. The sections were washed in 0.5% acetic acid in water (v/v) for 10 minutes with two washes at room temperature. After dehydrating the sections in ethanol, the sections were mounted in Permount mounting medium (17986-01, Electron Microscopy Sciences). The sections were imaged on a Nikon Microphot-FX (Nikon, Tokyo, Japan), and staining was quantified with ImageJ.
Immunohistochemistry on BAL cytospins was performed as described previously in Public Library of Science ONE 9, e93730 (2014); Proceedings of the National Academy of Sciences of the United States of America 111, 18291-18296 (2014); and Proceedings of the National Academy of Sciences of the United States of America 112, 8385-8390 (2015) using anti-CD11b (101202, clone M1/70 BioLegend, San Diego, CA) to detect blood and inflammatory macrophages, anti-CD11c (M100-3, clone 223H7, MBL International, Woburn, MA) to detect alveolar macrophages and dendritic cells, anti-CD45 (103102, clone 30-F11, BioLegend) for total leukocytes, anti-Ly-6G (127602, clone 1A8, BioLegend) to detect neutrophils, and anti-Ly-6C (128001, clone HK1.4, BioLegend) to detect a variety of inflammatory immune system cells, and with isotype-matched irrelevant antibodies (BioLegend) as controls.

SMILES	fibrosis-associated inflammation (BAL cell counts, CD11b, CD11c, CD45, Ly6G, Ly6C)	bleomycin-induced decrease in weights of mice	bleomycin-induced collagen deposition in the lungs (Sirius red staining)
CC(=O)c1ccccn1 [Compound 5, 2-acetylpyridine]	can reduce fibrosis-associated inflammation	attenuated	reduced
COC(=O)c1ccccn1 [Compound 6, methyl picolinate]	can reduce fibrosis-associated inflammation	attenuated	reduced
CN1CCC(N)CC1C(=O)O (stereo not drawn) [Compound 26, 2-piperidinecarboxylic acid, 4-amino-1-methyl]	can reduce fibrosis-associated inflammation	attenuated	reduced
